Experimental data as given in patent US20260285850A1, “SUBSTITUTED OXAZOLIDINONES AND IMIDAZOLINONES AS HERBICIDES” (FMC CORPORATION, priority 2023, published 2026).

Assays:
Format in all cases: in vivo
[1] = tested on: barnyardgrass (Echinochloa crus-galli); assay: Test A preemergence soil spray, visual injury rating 0-100; details: 10 days
How it was run: (§1)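 Rating: visual, day 10, untreated plants as reference, 0 no effect to 100 full control. Plants were in loam-sand and were treated either preemergence via directed soil spray or postemergence at the one- to two-leaf stage.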

[2] = tested on: blackgrass (Alopecurus myosuroides); assay: as above; details: 10 days
How it was run: as §1

corn (Zea mays) [3] = assay: as above; details: 10 days
How it was run: as §1

[4] = tested on: green foxtail (Setaria viridis); assay: as above; details: 10 days
How it was run: as §1

kochia (Bassia scoparia) [5] = assay: as above; details: 16 g ai/ha, 0 to 100 scale, 10 days
How it was run: as §1

[6] = tested on: oat, wild (wild oat, Avena fatua); assay: as above; details: 10 days
How it was run: as §1

[7] = tested on: palmer (palmer amaranth, palmer pigweed, Amaranthus palmeri); assay: as above; details: 10 days
How it was run: as §1

[8] = tested on: ragweed (common ragweed, Ambrosia artemisiifolia); assay: as above; details: 10 days
How it was run: as §1

[9] = tested on: ryegrass, Italian (italian ryegrass, Lolium multiflorum); assay: as above; details: 10 days
How it was run: as §1

soybean (Glycine max) [10] = assay: as above; details: 10 days
How it was run: as §1

[11] = tested on: wheat (Triticum aestivum); assay: as above; details: 10 days
How it was run: as §1

[12] = tested on: barnyardgrass (Echinochloa crus-galli); assay: Test A postemergence application, visual injury rating 0-100
How it was run: as §1

[13] = tested on: blackgrass (Alopecurus myosuroides); assay: as above
How it was run: as §1

corn (Zea mays) [14] = assay: as above
How it was run: as §1

[15] = tested on: galium (catchweed bedstraw, Galium aparine); assay: as above
How it was run: as §1

[16] = tested on: green foxtail (Setaria viridis); assay: as above
How it was run: as §1

[17] = tested on: horseweed (Erigeron canadensis); assay: as above
How it was run: as §1

kochia (Bassia scoparia) [18] = assay: as above
How it was run: as §1

[19] = tested on: oat, wild (wild oat, Avena fatua); assay: as above
How it was run: as §1

[20] = tested on: palmer (palmer amaranth, palmer pigweed, Amaranthus palmeri); assay: as above
How it was run: as §1

[21] = tested on: ragweed (common ragweed, Ambrosia artemisiifolia); assay: as above
How it was run: as §1

[22] = tested on: ryegrass, Italian (italian ryegrass, Lolium multiflorum); assay: as above
How it was run: as §1

soybean (Glycine max) [23] = assay: as above
How it was run: as §1

[24] = tested on: wheat (Triticum aestivum); assay: as above
How it was run: as §1

[25] = tested on: barnyardgrass (Echinochloa crusgalli); assay: Test B flooded paddy test, visual plant response rating 0-100; details: 250 g ai/ha, Flood, applied to paddy water, evaluated after 13 days
How it was run: (§2)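 Treatment occurs at the 2-leaf stage by adding compound to floodwater standing 3 cm above the soil, a level kept for the whole test. Plants stay in the greenhouse 13 days before visual comparison with controls.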

[26] = tested on: ducksalad (Heteranthera limosa); assay: as above; details: 250 g ai/ha, Flood, applied to paddy water, evaluated after 13 days
How it was run: as §2

rice (Oryza sativa) = assay: as above; details: 250 g ai/ha, Flood, applied to paddy water, evaluated after 13 days
How it was run: as §2

[27] = tested on: sedge, umbrella (small-flower umbrella sedge, Cyperus difformis); assay: as above; details: 250 g ai/ha, Flood, applied to paddy water, evaluated after 13 days
How it was run: as §2

[28] = 62 g ai/ha, 0 = no effect, 100 = complete control
[29] = 62 g ai/ha, postemergence, 10 days, 0 = no effect, 100 = complete control
[30] = Postemergence, 16 g ai/ha, greenhouse 10 days, 0 no effect, 100 complete control

CCOC(=O)C1C=CC(NC(=O)C2(C)CN(c3cccc(OC(F)(F)F)c3)C(=O)O2)C1 (stereo not drawn) [Compound 102]
Barnyardgrass plant response rating ([1]; 16 g ai/ha, 0 to 100 scale): 0 | Barnyardgrass plant response rating (0-100) [1, 28]: 0 | Blackgrass plant response rating ([2]; 16 g ai/ha, 0 to 100 scale): 0 | Blackgrass plant response rating (0-100) [2, 28]: 30 | Corn plant response rating (corn (Zea mays) [3]; 16 g ai/ha, 0 to 100 scale): 0 | Corn plant response rating (0-100) (corn (Zea mays) [3]; [28]): 10 | Foxtail, Green plant response rating ([4]; 16 g ai/ha, 0 to 100 scale): 0 | Foxtail, Green plant response rating (0-100) [4, 28]: 10 | Kochia plant response rating (kochia (Bassia scoparia) [5]): 0 | Oat, Wild plant response rating ([6]; 16 g ai/ha, 0 to 100 scale): 0 | Oat, Wild plant response rating (0-100) [6, 28]: 30 | Pigweed, Palmer plant response rating ([7]; 16 g ai/ha, 0 to 100 scale): 0 | Pigweed, Palmer plant response rating (0-100) [7, 28]: 0 | Ragweed plant response rating ([8]; 16 g ai/ha, 0 to 100 scale): 0 | Ragweed plant response rating (0-100) [8, 28]: 0 | Ryegrass, Italian plant response rating ([9]; 16 g ai/ha, 0 to 100 scale): 0 | Ryegrass, Italian plant response rating (0-100) [9, 28]: 70 | Soybean plant response rating (soybean (Glycine max) [10]; 16 g ai/ha, 0 to 100 scale): 0 | Soybean plant response rating (0-100) (soybean (Glycine max) [10]; [28]): 0 | Wheat plant response rating ([11]; 16 g ai/ha, 0 to 100 scale): 0 | Wheat plant response rating (0-100) [11, 28]: 20 | Barnyardgrass plant response rating (0-100) [12, 29]: 80 | Barnyardgrass plant response rating (0 to 100 scale) [12, 30]: 30 | Blackgrass plant response rating (0-100) [13, 29]: 90 | Blackgrass plant response rating (0 to 100 scale) [13, 30]: 50 | Corn plant response rating (0-100) (corn (Zea mays) [14]; [29]): 60 | Corn plant response rating (0 to 100 scale) (corn (Zea mays) [14]; [30]): 0 | Galium plant response rating (0-100) [15, 29]: 70 | Galium plant response rating (0 to 100 scale) [15, 30]: 50 | Foxtail, Green plant response rating (0-100) [16, 29]: 20 | Foxtail, Green plant response rating (0 to 100 scale) [16, 30]: 10 | Horseweed plant response rating (0-100) [17, 29]: 10 | Horseweed plant response rating (0 to 100 scale) [17, 30]: 20 | Kochia plant response rating (0-100) (kochia (Bassia scoparia) [18]; [29]): 70 | Kochia plant response rating (0 to 100 scale) (kochia (Bassia scoparia) [18]; [30]): 0 | Oat, Wild plant response rating (0-100) [19, 29]: 60 | Oat, Wild plant response rating (0 to 100 scale) [19, 30]: 20 | Pigweed, Palmer plant response rating (0-100) [20, 29]: 10 | Pigweed, Palmer plant response rating (0 to 100 scale) [20, 30]: 0 | Ragweed plant response rating (0-100) [21, 29]: 20 | Ragweed plant response rating (0 to 100 scale) [21, 30]: 0 | Ryegrass, Italian plant response rating (0-100) [22, 29]: 70 | Ryegrass, Italian plant response rating (0 to 100 scale) [22, 30]: 20 | Soybean plant response rating (0-100) (soybean (Glycine max) [23]; [29]): 50 | Soybean plant response rating (0 to 100 scale) (soybean (Glycine max) [23]; [30]): 30 | Wheat plant response rating (0-100) [24, 29]: 20 | Wheat plant response rating (0 to 100 scale) [24, 30]: 20 | Plant response rating, Barnyardgrass (0 to 100 scale, 0 is no effect and 100 is complete control) [25]: 0 | Plant response rating, Ducksalad (0 to 100 scale, 0 is no effect and 100 is complete control) [26]: 0 | Plant response rating, Rice (0 to 100 scale, 0 is no effect and 100 is complete control) (rice (Oryza sativa)): 0 | Plant response rating, Sedge, Umbrella (0 to 100 scale, 0 is no effect and 100 is complete control) [27]: 0
